From the supplement of paper PMC10307832

How the values were obtained:
Experiment in all cases: relative viability (nuclei count vs DMSO), 5 days (fraction); higher = more cells survive
Palbociclib + Crizotinib = compound: CC(=O)c1c(C)c2cnc(Nc3ccc(N4CCNCC4)cn3)nc2n(C2CCCC2)c1=O [Palbociclib] + C[C@@H](Oc1cc(-c2cnn(C3CCNCC3)c2)cnc1N)c1c(Cl)ccc(F)c1Cl [Crizotinib] (partner 1 µM)
Summary of the method: (§1)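 Relative viability divides the nuclei count in treated wells by that in vehicle wells. Lung cancer cell lines were seeded in 1536-well plates, dosed by pin tool the next day, and fixed and stained after 5 days in one step with final 0.05% Triton X-100, 1% formaldehyde and 1 ug/ml Hoechst. Dosing was a single drug or a fixed anchor-drug dose plus five library-drug doses (not always all listed) in √10 steps, and values are medians of duplicate plates imaged at 4×.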

Palbociclib + Linsitinib = compound: CC(=O)c1c(C)c2cnc(Nc3ccc(N4CCNCC4)cn3)nc2n(C2CCCC2)c1=O [Palbociclib] + C[C@]1(O)C[C@@H](c2nc(-c3ccc4ccc(-c5ccccc5)nc4c3)c3c(N)nccn32)C1 [Linsitinib] (partner 1 µM)
Summary of the method: as §1

Palbociclib + Tozasertib = compound: CC(=O)c1c(C)c2cnc(Nc3ccc(N4CCNCC4)cn3)nc2n(C2CCCC2)c1=O [Palbociclib] + Cc1cc(Nc2cc(N3CCN(C)CC3)nc(Sc3ccc(NC(=O)C4CC4)cc3)n2)n[nH]1 [Tozasertib] (partner 0.1 µM)
Summary of the method: as §1

Palbociclib + Dasatinib = compound: CC(=O)c1c(C)c2cnc(Nc3ccc(N4CCNCC4)cn3)nc2n(C2CCCC2)c1=O [Palbociclib] + Cc1nc(Nc2ncc(C(=O)Nc3c(C)cccc3Cl)s2)cc(N2CCN(CCO)CC2)n1 [Dasatinib] (partner 0.075 µM)
Summary of the method: as §1

Row | Cell Line | relative viability (Palbociclib + Crizotinib; first compound 0.01 µM) | relative viability (Palbociclib + Crizotinib; first compound 0.03162 µM) | relative viability (Palbociclib + Crizotinib; first compound 0.1 µM) | relative viability (Palbociclib + Crizotinib; first compound 0.3162 µM) | relative viability (Palbociclib + Crizotinib; first compound 1 µM) | relative viability (Palbociclib + Linsitinib; first compound 0.01 µM) | relative viability (Palbociclib + Linsitinib; first compound 0.03162 µM) | relative viability (Palbociclib + Linsitinib; first compound 0.1 µM) | relative viability (Palbociclib + Linsitinib; first compound 0.3162 µM) | relative viability (Palbociclib + Linsitinib; first compound 1 µM) | relative viability (Palbociclib + Tozasertib; first compound 0.01 µM) | relative viability (Palbociclib + Tozasertib; first compound 0.1 µM) | relative viability (Palbociclib + Tozasertib; first compound 0.3162 µM) | relative viability (Palbociclib + Tozasertib; first compound 1 µM) | relative viability (Palbociclib + Dasatinib; first compound 0.01 µM) | relative viability (Palbociclib + Dasatinib; first compound 0.1 µM) | relative viability (Palbociclib + Dasatinib; first compound 0.3162 µM) | relative viability (Palbociclib + Dasatinib; first compound 1 µM) | relative viability (Palbociclib + Tozasertib; first compound 0.03162 µM) | relative viability (Palbociclib + Dasatinib; first compound 0.03162 µM)
1 | NCI-H2347 | 0.632 | 0.602 | 0.498 | 0.588 | 0.558 | 1.04 | 0.868 | 0.597 | 0.723 | 0.595 | 0.639 | 0.542 | 0.565 | 0.361 | 0.341 | 0.266 | 0.247 | 0.245 | – | –
2 | UMC-11 | 0.603 | 0.519 | 0.428 | 0.346 | 0.177 | 1.02 | 0.894 | 0.888 | 0.536 | 0.326 | 0.197 | 0.202 | 0.22 | 0.208 | 0.491 | 0.346 | 0.328 | 0.232 | 0.187 | 0.395
3 | NCI-H661 | 0.957 | 0.779 | 0.674 | 0.694 | 0.556 | 0.547 | 0.529 | 0.46 | 0.421 | 0.351 | 0.332 | 0.324 | 0.302 | 0.3 | 0.901 | 0.476 | 0.533 | 0.435 | 0.346 | 0.793
4 | NCI-H3122 | 0.246 | 0.244 | 0.252 | 0.188 | 0.175 | 0.925 | 1.02 | 0.943 | 0.809 | 0.63 | 0.344 | 0.231 | 0.234 | 0.143 | 0.762 | 0.386 | 0.414 | 0.231 | 0.212 | 0.546
5 | HCC-78 | 0.375 | 0.328 | 0.266 | 0.27 | 0.269 | 0.46 | 0.329 | 0.302 | 0.39 | 0.273 | 0.451 | 0.319 | 0.354 | 0.334 | 0.348 | 0.348 | 0.26 | 0.215 | 0.383 | 0.361
6 | PC-3 [JPC-3] | 0.988 | 1.04 | 0.86 | 0.797 | 0.653 | 0.981 | 0.888 | 0.878 | 0.787 | 0.613 | 0.918 | 0.823 | 0.774 | 0.596 | 1.06 | 0.936 | 0.801 | 0.566 | 0.778 | 0.758
7 | HCC-15 | 0.811 | – | 0.725 | 0.687 | 0.63 | 0.966 | – | 0.832 | 0.755 | 0.726 | 0.454 | 0.38 | 0.372 | 0.343 | 0.622 | 0.516 | 0.598 | 0.439 | – | –
8 | NCI-H1755 | 0.927 | 0.889 | 0.707 | 0.706 | 0.539 | 1.01 | 0.987 | 0.873 | 0.814 | 0.711 | 0.578 | 0.558 | 0.506 | 0.506 | 0.381 | 0.371 | 0.399 | 0.279 | 0.596 | 0.373
